Experiment: The drug is tested on Enterobacter cancerogenus strain: ATCC35316 for biotransformation. The drug concentrations were measured before and after a 12-h incubation by liquid-chromatography-coupled mass spectrometry (LC–MS)
Settings: 2 µM

SMILES | Bacterial Biotransformation
CC(CCc1ccccc1)NCC(O)c1ccc(O)c(C(N)=O)c1 (centres undefined) [LABETALOL] | Compound NOT metabolized
Nc1nc(N)nc(-c2cc(Cl)ccc2Cl)n1.O=C(O)/C=C\C(=O)O [IRSOGLADINE MALEATE] | Compound NOT metabolized
CCN(CC)CCNC(=O)c1cc(Cl)c(N)cc1OC [METOCLOPRAMIDE] | Compound NOT metabolized

Settings: enterocloster bolteae, 12 h, 2 µM
Description: The drug is tested on Clostridium bolteae strain: ATCCBAA-613 for biotransformation. The drug concentrations were measured before and after a 12-h incubation by liquid-chromatography-coupled mass spectrometry (LC–MS)

SMILES | Bacterial Biotransformation
CC(CCc1ccccc1)NCC(O)c1ccc(O)c(C(N)=O)c1 (centres undefined) [LABETALOL] | Compound NOT metabolized
Nc1nc(N)nc(-c2cc(Cl)ccc2Cl)n1.O=C(O)/C=C\C(=O)O [IRSOGLADINE MALEATE] | Compound NOT metabolized
CCN(CC)CCNC(=O)c1cc(Cl)c(N)cc1OC [METOCLOPRAMIDE] | Compound NOT metabolized

Experiment: The drug is tested on Dorea formicigenerans strain: ATCC27755 for biotransformation. The drug concentrations were measured before and after a 12-h incubation by liquid-chromatography-coupled mass spectrometry (LC–MS)
Settings: 2 µM

SMILES | Bacterial Biotransformation
CC(CCc1ccccc1)NCC(O)c1ccc(O)c(C(N)=O)c1 (centres undefined) [LABETALOL] | Compound NOT metabolized
Nc1nc(N)nc(-c2cc(Cl)ccc2Cl)n1.O=C(O)/C=C\C(=O)O [IRSOGLADINE MALEATE] | Compound NOT metabolized
CCN(CC)CCNC(=O)c1cc(Cl)c(N)cc1OC [METOCLOPRAMIDE] | Compound NOT metabolized

Experiment: The drug is tested on Clostridium symbiosum strain: ATCC14940 for biotransformation. The drug concentrations were measured before and after a 12-h incubation by liquid-chromatography-coupled mass spectrometry (LC–MS)
Settings: 2 µM

SMILES | Bacterial Biotransformation
CC(CCc1ccccc1)NCC(O)c1ccc(O)c(C(N)=O)c1 (centres undefined) [LABETALOL] | Compound NOT metabolized
Nc1nc(N)nc(-c2cc(Cl)ccc2Cl)n1.O=C(O)/C=C\C(=O)O [IRSOGLADINE MALEATE] | Compound NOT metabolized
CCN(CC)CCNC(=O)c1cc(Cl)c(N)cc1OC [METOCLOPRAMIDE] | Compound NOT metabolized

Experiment: The drug is tested on Ruminococcus torques strain: ATCC27756 for biotransformation. The drug concentrations were measured before and after a 12-h incubation by liquid-chromatography-coupled mass spectrometry (LC–MS)
Assay type: ADME
Design: dose 2 uM, timepoint 0 vs 12 hours
Settings: 2 µM

SMILES | Bacterial Biotransformation
CC(CCc1ccccc1)NCC(O)c1ccc(O)c(C(N)=O)c1 (centres undefined) [LABETALOL] | Compound NOT metabolized
Nc1nc(N)nc(-c2cc(Cl)ccc2Cl)n1.O=C(O)/C=C\C(=O)O [IRSOGLADINE MALEATE] | Compound NOT metabolized
CCN(CC)CCNC(=O)c1cc(Cl)c(N)cc1OC [METOCLOPRAMIDE] | Compound NOT metabolized

Experiment: The drug is tested on Collinsella intestinalis strain: DSM13280 for biotransformation. The drug concentrations were measured before and after a 12-h incubation by liquid-chromatography-coupled mass spectrometry (LC–MS)
Settings: 2 µM

SMILES | Bacterial Biotransformation
CC(CCc1ccccc1)NCC(O)c1ccc(O)c(C(N)=O)c1 (centres undefined) [LABETALOL] | Compound NOT metabolized
Nc1nc(N)nc(-c2cc(Cl)ccc2Cl)n1.O=C(O)/C=C\C(=O)O [IRSOGLADINE MALEATE] | Compound NOT metabolized
CCN(CC)CCNC(=O)c1cc(Cl)c(N)cc1OC [METOCLOPRAMIDE] | Compound NOT metabolized

Experiment: The drug is tested on Bacteroides coprophilus strain: DSM18228 for biotransformation. The drug concentrations were measured before and after a 12-h incubation by liquid-chromatography-coupled mass spectrometry (LC–MS)
Settings: 2 µM

SMILES | Bacterial Biotransformation
CC(CCc1ccccc1)NCC(O)c1ccc(O)c(C(N)=O)c1 (centres undefined) [LABETALOL] | Compound NOT metabolized
Nc1nc(N)nc(-c2cc(Cl)ccc2Cl)n1.O=C(O)/C=C\C(=O)O [IRSOGLADINE MALEATE] | Compound NOT metabolized
CCN(CC)CCNC(=O)c1cc(Cl)c(N)cc1OC [METOCLOPRAMIDE] | Compound NOT metabolized

Experiment: The drug is tested on Coprococcus comes strain: ATCC27758 for biotransformation. The drug concentrations were measured before and after a 12-h incubation by liquid-chromatography-coupled mass spectrometry (LC–MS)
Assay type: ADME
Design: dose 2 uM, timepoint 0 vs 12 hours
Settings: 2 µM

SMILES | Bacterial Biotransformation
CC(CCc1ccccc1)NCC(O)c1ccc(O)c(C(N)=O)c1 (centres undefined) [LABETALOL] | Compound NOT metabolized
Nc1nc(N)nc(-c2cc(Cl)ccc2Cl)n1.O=C(O)/C=C\C(=O)O [IRSOGLADINE MALEATE] | Compound NOT metabolized
CCN(CC)CCNC(=O)c1cc(Cl)c(N)cc1OC [METOCLOPRAMIDE] | Compound NOT metabolized

Experiment: The drug is tested on Eubacterium rectale strain: ATCC33656 for biotransformation. The drug concentrations were measured before and after a 12-h incubation by liquid-chromatography-coupled mass spectrometry (LC–MS)
Settings: agathobacter rectalis, 2 µM

SMILES | Bacterial Biotransformation
CC(CCc1ccccc1)NCC(O)c1ccc(O)c(C(N)=O)c1 (centres undefined) [LABETALOL] | Compound NOT metabolized
CCN(CC)CCNC(=O)c1cc(Cl)c(N)cc1OC [METOCLOPRAMIDE] | Compound NOT metabolized

Experiment: The drug is tested on Parabacteroides merdae strain: ATCC43184 for biotransformation. The drug concentrations were measured before and after a 12-h incubation by liquid-chromatography-coupled mass spectrometry (LC–MS)
Settings: 2 µM

SMILES | Bacterial Biotransformation
CC(CCc1ccccc1)NCC(O)c1ccc(O)c(C(N)=O)c1 (centres undefined) [LABETALOL] | Compound NOT metabolized
Nc1nc(N)nc(-c2cc(Cl)ccc2Cl)n1.O=C(O)/C=C\C(=O)O [IRSOGLADINE MALEATE] | Compound NOT metabolized
CCN(CC)CCNC(=O)c1cc(Cl)c(N)cc1OC [METOCLOPRAMIDE] | Compound NOT metabolized

Experiment: The drug is tested on Bacteroides ovatus strain: ATCC8483 for biotransformation. The drug concentrations were measured before and after a 12-h incubation by liquid-chromatography-coupled mass spectrometry (LC–MS)
Settings: 2 µM

SMILES | Bacterial Biotransformation
CC(CCc1ccccc1)NCC(O)c1ccc(O)c(C(N)=O)c1 (centres undefined) [LABETALOL] | Compound NOT metabolized
Nc1nc(N)nc(-c2cc(Cl)ccc2Cl)n1.O=C(O)/C=C\C(=O)O [IRSOGLADINE MALEATE] | Compound NOT metabolized
CCN(CC)CCNC(=O)c1cc(Cl)c(N)cc1OC [METOCLOPRAMIDE] | Compound NOT metabolized

Experiment: The drug is tested on Subdoligranulum variabile strain: DSM15176 for biotransformation. The drug concentrations were measured before and after a 12-h incubation by liquid-chromatography-coupled mass spectrometry (LC–MS)
Settings: 2 µM

SMILES | Bacterial Biotransformation
CC(CCc1ccccc1)NCC(O)c1ccc(O)c(C(N)=O)c1 (centres undefined) [LABETALOL] | Compound NOT metabolized
Nc1nc(N)nc(-c2cc(Cl)ccc2Cl)n1.O=C(O)/C=C\C(=O)O [IRSOGLADINE MALEATE] | Compound NOT metabolized
CCN(CC)CCNC(=O)c1cc(Cl)c(N)cc1OC [METOCLOPRAMIDE] | Compound NOT metabolized

Experiment: The drug is tested on Bacteroides fragilis strain: ATCC43859 for biotransformation. The drug concentrations were measured before and after a 12-h incubation by liquid-chromatography-coupled mass spectrometry (LC–MS)
Settings: 2 µM

SMILES | Bacterial Biotransformation
CC(CCc1ccccc1)NCC(O)c1ccc(O)c(C(N)=O)c1 (centres undefined) [LABETALOL] | Compound NOT metabolized
Nc1nc(N)nc(-c2cc(Cl)ccc2Cl)n1.O=C(O)/C=C\C(=O)O [IRSOGLADINE MALEATE] | Compound NOT metabolized
CCN(CC)CCNC(=O)c1cc(Cl)c(N)cc1OC [METOCLOPRAMIDE] | Compound NOT metabolized

Experiment: The drug is tested on Blautia luti strain: DSM14534 for biotransformation. The drug concentrations were measured before and after a 12-h incubation by liquid-chromatography-coupled mass spectrometry (LC–MS)
Assay type: ADME
Design: dose 2 uM, timepoint 0 vs 12 hours
Settings: 2 µM

SMILES | Bacterial Biotransformation
CC(CCc1ccccc1)NCC(O)c1ccc(O)c(C(N)=O)c1 (centres undefined) [LABETALOL] | Compound NOT metabolized
Nc1nc(N)nc(-c2cc(Cl)ccc2Cl)n1.O=C(O)/C=C\C(=O)O [IRSOGLADINE MALEATE] | Compound NOT metabolized
CCN(CC)CCNC(=O)c1cc(Cl)c(N)cc1OC [METOCLOPRAMIDE] | Compound NOT metabolized

Experiment: The drug is tested on Edwardsiella tarda strain: ATCC23685 for biotransformation. The drug concentrations were measured before and after a 12-h incubation by liquid-chromatography-coupled mass spectrometry (LC–MS)
Settings: 2 µM

SMILES | Bacterial Biotransformation
CC(CCc1ccccc1)NCC(O)c1ccc(O)c(C(N)=O)c1 (centres undefined) [LABETALOL] | Compound NOT metabolized
Nc1nc(N)nc(-c2cc(Cl)ccc2Cl)n1.O=C(O)/C=C\C(=O)O [IRSOGLADINE MALEATE] | Compound NOT metabolized
CCN(CC)CCNC(=O)c1cc(Cl)c(N)cc1OC [METOCLOPRAMIDE] | Compound NOT metabolized

Experiment: The drug is tested on Bacteroides fragilis strain: HMW610 for biotransformation. The drug concentrations were measured before and after a 12-h incubation by liquid-chromatography-coupled mass spectrometry (LC–MS)
Settings: 2 µM

SMILES | Bacterial Biotransformation
CC(CCc1ccccc1)NCC(O)c1ccc(O)c(C(N)=O)c1 (centres undefined) [LABETALOL] | Compound NOT metabolized
Nc1nc(N)nc(-c2cc(Cl)ccc2Cl)n1.O=C(O)/C=C\C(=O)O [IRSOGLADINE MALEATE] | Compound NOT metabolized
CCN(CC)CCNC(=O)c1cc(Cl)c(N)cc1OC [METOCLOPRAMIDE] | Compound NOT metabolized

Experiment: The drug is tested on Bacteroides pectinophilus strain: ATCC43243 for biotransformation. The drug concentrations were measured before and after a 12-h incubation by liquid-chromatography-coupled mass spectrometry (LC–MS)
Settings: 2 µM

SMILES | Bacterial Biotransformation
CC(CCc1ccccc1)NCC(O)c1ccc(O)c(C(N)=O)c1 (centres undefined) [LABETALOL] | Compound NOT metabolized
Nc1nc(N)nc(-c2cc(Cl)ccc2Cl)n1.O=C(O)/C=C\C(=O)O [IRSOGLADINE MALEATE] | Compound NOT metabolized
CCN(CC)CCNC(=O)c1cc(Cl)c(N)cc1OC [METOCLOPRAMIDE] | Compound NOT metabolized

Experiment: The drug is tested on Alistipes indistinctus strain: DSM22520 for biotransformation. The drug concentrations were measured before and after a 12-h incubation by liquid-chromatography-coupled mass spectrometry (LC–MS)
Settings: 2 µM

SMILES | Bacterial Biotransformation
Nc1nc(N)nc(-c2cc(Cl)ccc2Cl)n1.O=C(O)/C=C\C(=O)O [IRSOGLADINE MALEATE] | Compound NOT metabolized

Settings: bacteroides stercoris, 12 h, 2 µM
Description: The drug is tested on Bacteroides stercoris strain: ATCC43183 for biotransformation. The drug concentrations were measured before and after a 12-h incubation by liquid-chromatography-coupled mass spectrometry (LC–MS)

SMILES | Bacterial Biotransformation
CC(CCc1ccccc1)NCC(O)c1ccc(O)c(C(N)=O)c1 (centres undefined) [LABETALOL] | Compound NOT metabolized
Nc1nc(N)nc(-c2cc(Cl)ccc2Cl)n1.O=C(O)/C=C\C(=O)O [IRSOGLADINE MALEATE] | Compound NOT metabolized
CCN(CC)CCNC(=O)c1cc(Cl)c(N)cc1OC [METOCLOPRAMIDE] | Compound NOT metabolized

Reference: ChEMBL document CHEMBL5303573, “Mapping human microbiome drug metabolism by gut bacteria and their genes” (Nature, 2019)
